Measurements reported in patent US10519107B2, “Sulfonamide compounds and their use as STAT5 inhibitors” (Governing Council of the University of Toronto, priority 2014, dated 2019).

What was measured:
[1] = target: T1, wildtype STAT5B protein (SH2 domain) (Homo sapiens, UniProt P51692); experiment: Fluorescence polarization competitive binding, STAT5b; details: FP
T1 sequence (P51692 1-787): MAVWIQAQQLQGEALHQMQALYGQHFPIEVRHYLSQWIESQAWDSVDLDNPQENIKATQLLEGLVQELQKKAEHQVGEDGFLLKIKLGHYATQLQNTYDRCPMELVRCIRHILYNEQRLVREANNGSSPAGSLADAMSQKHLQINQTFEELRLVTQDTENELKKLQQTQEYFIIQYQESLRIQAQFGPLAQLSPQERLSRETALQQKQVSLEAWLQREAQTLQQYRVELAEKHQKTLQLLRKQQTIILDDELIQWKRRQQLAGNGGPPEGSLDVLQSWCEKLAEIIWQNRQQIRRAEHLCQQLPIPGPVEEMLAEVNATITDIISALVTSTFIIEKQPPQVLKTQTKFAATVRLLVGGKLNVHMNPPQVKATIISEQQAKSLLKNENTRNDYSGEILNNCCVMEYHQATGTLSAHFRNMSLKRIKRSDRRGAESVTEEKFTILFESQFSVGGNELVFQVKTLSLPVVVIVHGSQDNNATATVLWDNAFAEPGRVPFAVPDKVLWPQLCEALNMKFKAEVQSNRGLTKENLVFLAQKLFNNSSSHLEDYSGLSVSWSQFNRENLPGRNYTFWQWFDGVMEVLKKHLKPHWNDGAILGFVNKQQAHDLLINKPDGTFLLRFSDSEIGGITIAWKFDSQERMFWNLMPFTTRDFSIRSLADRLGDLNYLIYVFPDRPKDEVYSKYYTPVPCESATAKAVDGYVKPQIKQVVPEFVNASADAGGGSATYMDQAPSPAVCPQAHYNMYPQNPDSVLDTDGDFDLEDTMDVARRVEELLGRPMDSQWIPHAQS
Procedure: Fluorescence assays were performed in flat black 384-well plates (Corning) and fluorescence polarization measurements were taken with the Infinite M1000 machine (Tecan, Crailsheim, Germany). The buffer conditions for all assays were 20 mM HEPES, 50 mM NaCl, 1 mM EDTA, 2 mM dithiothreitol, pH 7.5 and the final DMSO concentration in the wells was kept constant at 10%.
The point at which 80% of the fluoresceinated-phosphopeptide was bound was used as the optimal protein concentration required for the competitive fluorescent polarization assays.
Compounds were titrated at concentrations ranging from 1->60,000 nM and incubated for a further 15 minutes at which point fluorescence polarization measurements were taken in triplicate. The final well concentrations of the fluoresceinated-phosphopeptide and STAT5B were 10 nM and 250 nM, respectively.
The resulting fluorescence polarization measurements were normalized and plotted against compound concentration on a logarithmic scale. The raw data was fitted with a standard dose-normalized response inhibition curve using GraphPad Prism 6 software.
Modified Cheng-Pruskoff equation containing a correction factor for protein concentration.

[2] = system: phosphorylated STAT5 (Y694); experiment: Western blotting of pSTAT5 in K562 cells; format: cell-based, Human; details: K562, 5 hrs
Procedure: Human erythroleukemia K562 and MV-4-11 cells were cultured in Iscove's modified dulbecco's medium (Gibco) supplemented with 10% FBS (Sigma). Breast carcinoma lines MDA-MB-231 and MDA-MB-468 were grown in dulbecco's modified eagles medium (DMEM) supplemented with 10% FBS (sigma). For downregulation of STAT5 activity, cells were treated with 5, 10, 15, 20 μM of 13a-d STAT5 compounds, for 3 h and 5 h time points. As a control, cells were treated with the DMSO alone.

[3] = Metabolic stability in mouse hepatocytes; format: in vitro ADME; details: 120 min
Procedure: 13a was then evaluated within intact human and mouse hepatocytes. Like the s9 fractions, Verapamil was used as a positive control in the assay. Cryopreserved hepatocytes were thawed and plated to a working cell density of 0.5×10^6 viable cell/mL.

STAT5 = target: T2, STAT5; details: SPR, 25° C., Langmuir 1:1 binding model; read-out: KD (koff/kon) STAT5
T2 construct: rows headed: KD (koff/kon) STAT5
Procedure: Interactions of His-tagged STAT3 and STAT5 with small molecules were investigated using SPR spectroscopy. The binding experiments were carried on a ProteOn XPR36 (Bio-Rad) biosensor at 25° C. using the HTE sensor chip (Bio-Rad, Ontario, Canada). The flow cells of the sensor chip were loaded with a nickel solution at 30 μL/min for 120 s to saturate the Tris-NTA surface with Ni(II) ions. […] When the injection of the compounds was completed, running buffer was allowed to flow over the immobilized substrates for the non-specifically bound inhibitors to dissociate for 600 s. Following dissociation of the compounds, the chip surface was regenerated with an injection of 1 M NaCl at a flow rate of 100 μL/min for 18 s. Interspot channel reference was used for non-specific binding corrections and the blank channel used with each analyte injection served as a double reference to correct for possible baseline drift. Data were analysed using ProteOn Manager Software version 3.1.

## CC(C)(C)c1cc(CN(C(=O)CN(Cc2ccc(Cl)cc2)S(=O)(=O)c2c(F)c(F)c(F)c(F)c2F)c2ccc(C(=O)O)c(O)c2)cc(C(C)(C)C)c1 [Compound 13a, 4-(2-((N-(4-chlorobenzyl)-2,3,4,5,6-pentafluorophenyl)sulfonamido)-N-(3,5-di-tert-butylbenzyl)acetamido)-2-hydroxybenzoic Acid]
[1]; 5-FAM-GpYLVLDKW 10 nM, STAT5B 250 nM
  IC50: 370 nM
[1]; converted from IC50 with Equation 1
  Ki: 150 nM
[2]
  levels of phosphorylated STAT5 (Y694): decreased pSTAT5 in a dose dependant manner and ablated pSTAT5 above 10 μM
  total STAT5 concentration or cleavable PARP-1: no change
[3]
  recovered in mouse hepatocytes: 53.37%
[3]; boiled hepatocytes
  recovered in boiled mouse hepatocytes (negative control): ~85%
STAT5
  Kd: 41.9 ± 4 nM
